Source: paper PMC9966435, “Synthesis and Biological Evaluation of 3-Amidoquinuclidine Quaternary Ammonium Compounds as New Soft Antibacterial Agents” (Pharmaceuticals, 2023)
In brackets after ≈: the same amount, converted by molar mass. Where two headings read alike, the source gives them in different places.

Key:
Format in all cases: cell-based
[1] = tested on: Staphylococcus aureus Clinical/MRSA; assay: Broth microdilution MIC in Mueller Hinton broth; conditions: Staphylococcus aureus, MRSA, read-out: Minimum Inhibitory Concentration (MIC) Staphylococcus aureus Clinical/MRSA
[2] = tested on: Enterococcus faecalis ATCC29212; assay: Broth microdilution MIC in Mueller Hinton broth; conditions: Enterococcus faecalis
[3] = tested on: Bacillus cereus ATCC14579; assay: Broth microdilution MIC in Mueller Hinton broth; conditions: Bacillus cereus
[4] = tested on: Salmonella enterica food isolate; assay: microbe, parasite or virus in culture; conditions: Salmonella enterica, read-out: Minimum Inhibitory Concentration (MIC) Salmonella enterica food isolate
[5] = tested on: Listeria monocytogenes ATCC7644; assay: Broth microdilution MIC in Mueller Hinton broth; conditions: Listeria monocytogenes
[6] = tested on: Staphylococcus aureus ATCC25923; assay: Broth microdilution MIC in Mueller Hinton broth
[7] = tested on: Pseudomonas aeruginosa ATTC27853; assay: Broth microdilution MIC in Mueller Hinton broth; conditions: Pseudomonas aeruginosa
[8] = tested on: Escherichia coli ATTC25922; assay: Broth microdilution MIC in Mueller Hinton broth; conditions: Escherichia coli
[9] = tested on: Staphylococcus aureus ATCC33591; assay: Broth microdilution MIC in Mueller Hinton broth; conditions: Staphylococcus aureus
[10] = tested on: Staphylococcus aureus ATCC 25923; assay: MIC in cation-adjusted Mueller Hinton broth (CA-MHB)
Procedure: A representative bacterial strain, Staphylococcus aureus ATCC 25923, was grown overnight in Mueller Hinton broth (MHB). The following day, the culture was diluted in tempered MHB and allowed to grow at 37 °C with constant shaking of 220 rpm. Once the bacterial culture reached the exponential growth phase (OD600 = 0.3–0.5), it was diluted in the cation-adjusted Mueller Hinton broth (CA-MHB) containing MgCl2 (10 mM) to the final cell count of 5 × 10^5 CFU/mL. The previously prepared 96-well plate contained twofold serial dilutions of the compounds to be tested, dissolved in CA-MHB, in the concentrations range of 125 µM to 0.12 µM. Then, 50 µL of the bacterial cells diluted in CA-MHB was pipetted in each well of the plate and incubated overnight at 37 °C with constant shaking at 220 rpm. The next day, the minimum inhibitory concentration (MIC) was determined as the lowest concentration of the compound that prevented supposed bacterial growth in the wells. Visually determined results of antibacterial activity were confirmed by the addition of 20 µL 2-(4-iodophenyl)-3-(4-nitrophenyl)-5-phenyltetrazolium chloride (INT) reagent (6 mg/mL). The MIC value of a drug in CA-MHB containing NaCl (85 mM) was determined using the same experimental technique.

[11] = tested on: Staphylococcus aureus ATCC 25923; assay: MIC in Dulbecco's Modified Eagle Medium (DMEM)
Procedure: The overnight culture of Staphylococcus aureus ATCC 25923 was diluted in fresh Mueller Hinton broth (MHB) and placed in an orbital shaker incubator (Gallenkamp, Cambridge, UK) at 37 °C and 220 rpm. Once the culture reached the exponential growth phase (OD600 = 0.3–0.5), cells were centrifuged (Heraeus, Biofuge primo R, Hanau, Germany) at room temperature at a speed of 4000× g. The cell pellet was resuspended in tempered Dulbecco’s Modified Eagle Medium (DMEM) to a final concentration of 5 × 10^5 CFU/mL. Then, 50 µL of as-prepared cells were added to a 96-well plate containing twofold serial dilutions of tested compounds in DMEM medium in the range of concentrations from 125 µM to 0.12 µM. The minimum inhibitory concentration (MIC) was visually assessed the next day. The MIC was determined as the lowest concentration of the substance at which no apparent bacterial growth was seen.

[12] = tested on: Staphylococcus aureus ATCC 25923; assay: Time-resolved growth analysis
Procedure: The growth kinetic experiments were performed to further investigate the efficacy of the selected 3-amidoquinnuclidine candidates. The candidates from series 1 (QC14-Me, QC14-Ally, QC16-Me, and QC16-Ally) and series 3 (QBn-C12, QBn-C14, and QBn-C16) were incubated at MIC and ½ MIC for 350 min with an appropriate number of CFU of Staphylococcus aureus ATCC 25923 at 37 °C with shaking. Time-resolved growth analysis was performed along with the control, in which bacterial growth was monitored without the presence of the antibacterial agent.
Time-resolved growth analysis was performed in the microtiter plate reader (Bio-Tek EL808, Winooski, VT, USA) by incubating the selected antibacterial agent with Staphylococcus aureus ATCC 25923. The exponentially grown culture (OD600 = 0.3–0.5) of S. aureus ATCC 25923 was diluted to a final concentration of 5 × 10^4 CFU/mL. Then, 50 µL of such prepared cell culture was added to the 96-well plates containing the MIC or ½ MIC of the compound to be tested. The plates were incubated at 37 °C for 350 min in the microplate reader with shaking. OD600 was recorded at 10 min intervals. The results obtained represent the mean of two independent experiments performed in triplicate.

[13] = ATCC29212, MHB, read-out: Minimum Inhibitory Concentration (MIC) Enterococcus faecalis ATCC29212
[14] = ATCC14579, MHB, read-out: Minimum Inhibitory Concentration (MIC) Bacillus cereus ATCC14579
[15] = ATCC7644, MHB, read-out: Minimum Inhibitory Concentration (MIC) Listeria monocytogenes ATCC7644
[16] = Staphylococcus aureus, ATCC25923, MHB, read-out: Minimum Inhibitory Concentration (MIC) Staphylococcus aureus ATCC25923
[17] = ATTC27853, MHB, read-out: Minimum Inhibitory Concentration (MIC) Pseudomonas aeruginosa ATTC27853
[18] = ATTC25922, MHB, read-out: Minimum Inhibitory Concentration (MIC) Escherichia coli ATTC25922
[19] = ATCC33591, MHB, read-out: Minimum Inhibitory Concentration (MIC) Staphylococcus aureus ATCC33591
[20] = ATCC25923, cation-adjusted MHB, S. aureus ATCC 25923, read-out: MIC CA-MHB
[21] = MHB, read-out: Minimum Inhibitory Concentration (MIC) Staphylococcus aureus ATCC25923
[22] = ATCC25923, Dulbecco's Modified Eagle Medium, S. aureus ATCC 25923, read-out: MIC DMEM
[23] = ATCC29212, read-out: Minimum Inhibitory Concentration (MIC) Enterococcus faecalis ATCC29212
[24] = ATCC14579, read-out: Minimum Inhibitory Concentration (MIC) Bacillus cereus ATCC14579
[25] = ATCC7644, read-out: Minimum Inhibitory Concentration (MIC) Listeria monocytogenes ATCC7644
[26] = Staphylococcus aureus, ATCC25923, read-out: Minimum Inhibitory Concentration (MIC) Staphylococcus aureus ATCC25923
[27] = ATTC27853, read-out: Minimum Inhibitory Concentration (MIC) Pseudomonas aeruginosa ATTC27853
[28] = ATTC25922, read-out: Minimum Inhibitory Concentration (MIC) Escherichia coli ATTC25922
[29] = ATCC33591, read-out: Minimum Inhibitory Concentration (MIC) Staphylococcus aureus ATCC33591
[30] = ATCC25923, read-out: MIC CA-MHB

SMILES	MIC [1] [µM]	MIC [2, 13] [µM]	MIC [3, 14] [µM]	MIC [4] [µM]	MIC [5, 15] [µM]	MIC [6, 16] [µM]	MIC [7, 17] [µM]	MIC [8, 18] [µM]	MIC [9, 19] [µM]	MIC [6, 21] [µM]	MIC [2, 23] [µM]	MIC [3, 24] [µM]	MIC [5, 25] [µM]	MIC [6, 26] [µM]	MIC [7, 27] [µM]	MIC [8, 28] [µM]	MIC [9, 29] [µM]	other results
CCCCCCCCCCCC(=O)NC1CN2CCC1CC2 (stereo not shown) [QC12]	> 100	> 100	> 100	> 100	100 (≈ 30.9 µg/mL)	> 100	> 100	> 100	100 (≈ 30.9 µg/mL)	–	–	–	–	–	–	–	–	–
O=C(NC1CN2CCC1CC2)c1ccccc1 (racemic) [QBn, (±)3-benzamidoquinuclidine]	> 100	> 100	> 100	> 100	> 100	> 100	> 100	> 100	> 100	–	–	–	–	–	–	–	–	–
CCCCCCCCCCCCCC[N+]12CCC(CC1)C(NC(=O)c1ccccc1)C2 (stereo not shown) [QBn-C14]	31	8	63	31	4	31	63	31	31	31	–	–	–	–	–	–	–	MIC [10, 20]: 25 µM; MIC [11, 22]: 3 µM
CC(=O)NC1CN2CCC1CC2 (racemic) [QAc, (±)3-acetamidoquinuclidine]	> 100	–	–	> 100	–	–	–	–	–	–	> 100	> 100	> 100	> 100	> 100	> 100	> 100	–
CCCCCCCCCCCCCC[N+]12CCC(CC1)C(NC(C)=O)C2 (stereo not shown) [QAc-C14]	> 125	63	–	> 125	63	–	–	–	–	–	–	> 125	–	> 125	> 125	> 125	> 125	–
CCCCCCCCCCCCCCCC(=O)NC1C[N+]2(C)CCC1CC2 (stereo not shown) [QC16-Me]	31	–	–	–	–	–	–	–	–	16	100	> 100	8	16	> 125	> 100	25	MIC [10, 30]: 16 µM; MIC ([4]; MHB): > 125 µM; MIC ([11]; ATCC25923, read-out: MIC DMEM): 6 µM
NC1CN2CCC1CC2 (stereo not shown) [QNH2, 3-aminoquinuclidine]	> 100	–	–	> 100	–	–	–	–	–	–	> 100	> 100	> 100	> 100	> 100	> 100	> 100	–
CCCCCCCCCCCCCC(=O)NC1CN2CCC1CC2 (stereo not shown) [QC14]	50 (≈ 16.8 µg/mL)	17 (≈ 5.72 µg/mL)	25 (≈ 8.41 µg/mL)	100 (≈ 33.7 µg/mL)	25 (≈ 8.41 µg/mL)	60 (≈ 20.2 µg/mL)	> 100	50 (≈ 16.8 µg/mL)	50 (≈ 16.8 µg/mL)	–	–	–	–	–	–	–	–	–
CCCCCCCCCCCC[N+]12CCC(CC1)C(NC(C)=O)C2 (stereo not shown) [QAc-C12]	> 125	–	–	> 125	–	–	–	–	–	–	> 125	> 125	> 125	> 125	> 125	> 125	> 125	–
C=CC[N+]12CCC(CC1)C(NC(=O)CCCCCCCCCCC)C2 (stereo not shown) [QC12-Ally]	> 125	–	–	> 125	–	–	–	–	–	–	> 125	> 125	> 125	> 125	> 125	> 125	> 125	–
CCCCCCCCCCCC(=O)NC1C[N+]2(C)CCC1CC2 (stereo not shown) [QC12-Me]	100	100	100	> 125	100	100	–	100	–	–	–	–	–	–	> 125	–	> 125	–
CCCCCCCCCCCC[N+]12CCC(CC1)C(NC(=O)c1ccccc1)C2 (stereo not shown) [QBn-C12]	63	31	63	63	31	63	> 125	63	63	63	–	–	–	–	–	–	–	MIC [10, 20]: 25 µM; MIC [11, 22]: 3 µM
CCCCCCCCCCCCCC(=O)NC1C[N+]2(C)CCC1CC2 (stereo not shown) [QC14-Me]	60	–	–	–	–	–	–	–	–	40	30	50	20	40	> 125	100	100	inhibition of bacterial growth at ½ MIC [12]: unable to inhibit bacterial growth; MIC [10, 30]: 40 µM; MIC ([4]; MHB): > 125 µM; MIC ([11]; ATCC25923, read-out: MIC DMEM): 12 µM
CCCCCCCCCCCCCCCC(=O)NC1CN2CCC1CC2 (stereo not shown) [QC16]	250 (≈ 91.2 µg/mL)	> 100	> 100	> 100	125 (≈ 45.6 µg/mL)	62.5 (≈ 22.8 µg/mL)	> 100	> 100	100 (≈ 36.5 µg/mL)	–	–	–	–	–	–	–	–	–
CCCCCCCCCCCCCCCC[N+]12CCC(CC1)C(NC(=O)c1ccccc1)C2 (stereo not shown) [QBn-C16]	31	4	63	63	4	63	> 125	31	31	63	–	–	–	–	–	–	–	MIC [10, 20]: 6 µM; MIC [11, 22]: 3 µM
CCCCCCCCCCCCCCCC[N+]12CCC(CC1)C(NC(C)=O)C2 (stereo not shown) [QAc-C16]	> 125	31	–	> 125	8	–	–	–	–	–	–	> 125	–	> 125	> 125	> 125	> 125	–
